Where two headings read alike, the source gives them in different places.
Legend:
SK-MEL-5 = assay: Melanoma cytotoxicity assay (resazurin); type: cell-based; details: SK-MEL-5 melanoma cells, 24 hours with compound, resazurin; concentration not given
Method in brief: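 ~4000 cells/well seeded 24 h, then compound added in triplicate for 24 h at 37° C, 5% CO2. Resazurin added for 6 h; fluorescence at 544/590 nm, background-subtracted and normalised to DMSO wells as % viability; IC50 from sigmoidal fit of serial dilutions.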

LOX IMVI = assay: Melanoma cytotoxicity assay (resazurin); type: cell-based; details: LOX IMVI melanoma cells, resazurin
Method in brief: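 About 4000 cells per well were seeded and held 24 h at 37° C, 5% CO2, then exposed to compounds in triplicate for 24 h. Resazurin was added for 6 h and fluorescence read at 544/590 nm; IC50 came from sigmoidal fits of viability versus concentration.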

[1] = test system: 60 different human tumor cell lines; assay: cells

(1S,2R,13R,14S,18S)-7-(3-fluoroanilino)-2,18-dimethyl-6-thia-8-azapentacyclo[11.7.0.02,10.05,9.014,18]icosa-5(9),7,10-trien-17-one [IIa.8]
SK-MEL-5 (% inhibition) (SK-MEL-5): 84% | LOX-IMVI (% inhibition) (LOX IMVI; 24 hours with compound, concentration not given): 79% | IC50 (LOX IMVI; 24 hours): > 20 µM

C[C@]12CCc3sc(NCCc4ccccc4)nc3C1=CC[C@@H]1[C@@H]2CC[C@]2(C)C(=O)CC[C@@H]12 [IIa.2, (1S,2R,13R,14S,18S)-2,18-dimethyl-7-(2-phenylethylamino)-6-thia-8-azapentacyclo [11.7.0.02,10.05,9.014,18]icosa-5(9),7,10-trien-17-one]
GI50 ([1]; 60 cell): 3.35 µM | CC50 ([1]; 60 cell, read-out: LC50): > 100 µM | GI50 ([1]; 786-0): 2.82 µM | CC50 ([1]; 786-0, read-out: LC50): > 100 µM | GI50 ([1]; A498): 4.43 µM | CC50 ([1]; A498, read-out: LC50): > 100 µM | GI50 ([1]; A549): 7 µM | CC50 ([1]; A549, read-out: LC50): > 100 µM | GI50 ([1]; ACHN): 1.96 µM | CC50 ([1]; ACHN, read-out: LC50): 7.19 µM | GI50 ([1]; BT-549): 2.42 µM | CC50 ([1]; BT-549, read-out: LC50): > 100 µM | GI50 ([1]; CAKI-1): 3.13 µM | CC50 ([1]; CAKI-1, read-out: LC50): > 100 µM | GI50 ([1]; CCRF-CEM): 2.63 µM | CC50 ([1]; CCRF-CEM, read-out: LC50): > 100 µM | GI50 ([1]; COLO 205): 3.03 µM | CC50 ([1]; COLO 205, read-out: LC50): > 100 µM | GI50 ([1]; DU-145): 3.64 µM | CC50 ([1]; DU-145, read-out: LC50): > 100 µM | GI50 ([1]; EKVX): 90.1 µM | CC50 ([1]; EKVX, read-out: LC50): > 100 µM | GI50 ([1]; HCC 2998): 8.19 µM | CC50 ([1]; HCC 2998, read-out: LC50): > 100 µM | GI50 ([1]; HCT-15): 1.57 µM | CC50 ([1]; HCT-15, read-out: LC50): 88.7 µM | GI50 ([1]; HCT-116): 2.87 µM | CC50 ([1]; HCT-116, read-out: LC50): > 100 µM | GI50 ([1]; HL-60): 2.93 µM | CC50 ([1]; HL-60, read-out: LC50): > 100 µM | GI50 ([1]; HOP-62): 8.52 µM | CC50 ([1]; HOP-62, read-out: LC50): > 100 µM | GI50 ([1]; HOP-92): 2.75 µM | CC50 ([1]; HOP-92, read-out: LC50): > 100 µM | GI50 ([1]; HT-29): 2.21 µM | CC50 ([1]; HT-29, read-out: LC50): > 100 µM | GI50 ([1]; Hs-578T): 2.85 µM | CC50 ([1]; Hs-578T, read-out: LC50): > 100 µM | GI50 ([1]; IGROV-1): 2.6 µM | CC50 ([1]; IGROV-1, read-out: LC50): 65.6 µM | GI50 ([1]; K562): 2.89 µM | CC50 ([1]; K562, read-out: LC50): > 100 µM | GI50 ([1]; KM12): 3.6 µM | CC50 ([1]; KM12, read-out: LC50): > 100 µM | GI50 ([1]; LOX IMVI): 1.7 µM | CC50 ([1]; LOX IMVI, read-out: LC50): 5.91 µM | GI50 ([1]; M14): 3.63 µM | CC50 ([1]; M14, read-out: LC50): > 100 µM | GI50 ([1]; MCF7): 2.68 µM | CC50 ([1]; MCF7, read-out: LC50): > 100 µM | GI50 ([1]; MDA-MB-231): 3.4 µM | CC50 ([1]; MDA-MB-231, read-out: LC50): > 100 µM | GI50 ([1]; MDA-MB-435): 3.01 µM | CC50 ([1]; MDA-MB-435, read-out: LC50): > 100 µM | GI50 ([1]; MDA-MB-468): 2.99 µM | CC50 ([1]; MDA-MB-468, read-out: LC50): > 100 µM | GI50 ([1]; MOLT-4): 2.58 µM | CC50 ([1]; MOLT-4, read-out: LC50): > 100 µM | GI50 ([1]; Malme-3M): 2.18 µM | CC50 ([1]; Malme-3M, read-out: LC50): > 100 µM | GI50 ([1]; NCI-H23): 5.03 µM | GI50 ([1]; NCI-H226): 2.42 µM | CC50 ([1]; NCI-H226, read-out: LC50): > 100 µM | GI50 ([1]; NCI-H322M): 96.9 µM | CC50 ([1]; NCI-H322M, read-out: LC50): > 100 µM | GI50 ([1]; NCI-H460): 4.47 µM | CC50 ([1]; NCI-H460, read-out: LC50): > 100 µM | GI50 ([1]; NCI-H522): 1.78 µM | CC50 ([1]; NCI-H522, read-out: LC50): 7.45 µM | GI50 ([1]; NCI/ADR-RES): 2.31 µM | CC50 ([1]; NCI/ADR-RES, read-out: LC50): > 100 µM | GI50 ([1]; OVCAR-3): 2.08 µM | CC50 ([1]; OVCAR-3, read-out: LC50): > 100 µM | GI50 ([1]; OVCAR-4): 3.93 µM | CC50 ([1]; OVCAR-4, read-out: LC50): > 100 µM | GI50 ([1]; OVCAR-5): 4.44 µM | CC50 ([1]; OVCAR-5, read-out: LC50): > 100 µM | GI50 ([1]; OVCAR-8): 2.77 µM | CC50 ([1]; OVCAR-8, read-out: LC50): > 100 µM | GI50 ([1]; RXF 393): 1.73 µM | CC50 ([1]; RXF 393, read-out: LC50): 30.9 µM | GI50 ([1]; SF-268): 4.62 µM | CC50 ([1]; SF-268, read-out: LC50): > 100 µM | GI50 ([1]; SK-MEL-2): 17 µM | CC50 ([1]; SK-MEL-2, read-out: LC50): > 100 µM | GI50 ([1]; SK-MEL-5): 4.57 µM | CC50 ([1]; SK-MEL-5, read-out: LC50): > 100 µM | GI50 ([1]; SK-MEL-28): 3.37 µM | CC50 ([1]; SK-MEL-28, read-out: LC50): > 100 µM | GI50 ([1]; SK-OV-3): > 100 µM | CC50 ([1]; SK-OV-3, read-out: LC50): > 100 µM | GI50 ([1]; SN12C): 2.89 µM | CC50 ([1]; SN12C, read-out: LC50): > 100 µM | GI50 ([1]; SNB-19): 97.5 µM | CC50 ([1]; SNB-19, read-out: LC50): > 100 µM | GI50 ([1]; SNB-75): 2.67 µM | CC50 ([1]; SNB-75, read-out: LC50): > 100 µM | GI50 ([1]; SW-620): 2.3 µM | CC50 ([1]; SW-620, read-out: LC50): > 100 µM | GI50 ([1]; T47D): 3.05 µM | CC50 ([1]; T47D, read-out: LC50): > 100 µM | GI50 ([1]; TK-10): 4.15 µM | CC50 ([1]; TK-10, read-out: LC50): > 100 µM | GI50 ([1]; U-251): 4.97 µM | CC50 ([1]; U-251, read-out: LC50): > 100 µM | GI50 ([1]; UACC-62): 2.67 µM | CC50 ([1]; UACC-62, read-out: LC50): > 100 µM | GI50 ([1]; UACC-257): 4.92 µM | CC50 ([1]; UACC-257, read-out: LC50): > 100 µM | GI50 ([1]; UO-31): 4.03 µM | CC50 ([1]; UO-31, read-out: LC50): > 100 µM | SK-MEL-5 (% inhibition) (SK-MEL-5): 73%

C[C@]12CCc3sc(Nc4ccc(OC(F)(F)F)cc4)nc3C1=CC[C@@H]1[C@@H]2CC[C@]2(C)C(=O)CC[C@@H]12 [IIa.19, (1S,2R,13R,14S,18S)-2,18-dimethyl-7-[4-(trifluoromethoxy)anilino]-6-thia-8-azapentacyclo[11.7.0.02,10.05,9.014,18]icosa-5(9),7,10-trien-17-one]
GI50 ([1]; A549): 3.35 µM | CC50 ([1]; A549, read-out: LC50): 73.5 µM | GI50 ([1]; CCRF-CEM): 1.42 µM | CC50 ([1]; CCRF-CEM, read-out: LC50): > 100 µM | GI50 ([1]; COLO 205): 2.61 µM | CC50 ([1]; COLO 205, read-out: LC50): 58.7 µM | GI50 ([1]; EKVX): 2.63 µM | CC50 ([1]; EKVX, read-out: LC50): 95.7 µM | GI50 ([1]; HCC 2998): 5.32 µM | CC50 ([1]; HCC 2998, read-out: LC50): 51.2 µM | GI50 ([1]; HCT-15): 1.69 µM | CC50 ([1]; HCT-15, read-out: LC50): 9.97 µM | GI50 ([1]; HCT-116): 1.28 µM | GI50 ([1]; HL-60): 1.93 µM | CC50 ([1]; HL-60, read-out: LC50): > 100 µM | GI50 ([1]; HOP-62): 1.92 µM | CC50 ([1]; HOP-62, read-out: LC50): 9.14 µM | GI50 ([1]; HOP-92): 1.43 µM | CC50 ([1]; HOP-92, read-out: LC50): 8.26 µM | GI50 ([1]; HT-29): 2.39 µM | CC50 ([1]; HT-29, read-out: LC50): > 100 µM | GI50 ([1]; K562): 1.87 µM | CC50 ([1]; K562, read-out: LC50): > 100 µM | GI50 ([1]; KM12): 3.56 µM | CC50 ([1]; KM12, read-out: LC50): > 100 µM | GI50 ([1]; LOX IMVI): 1.74 µM | CC50 ([1]; LOX IMVI, read-out: LC50): 5.82 µM | GI50 ([1]; MOLT-4): 1.53 µM | CC50 ([1]; MOLT-4, read-out: LC50): > 100 µM | GI50 ([1]; Malme-3M): 3.45 µM | CC50 ([1]; Malme-3M, read-out: LC50): 84.5 µM | GI50 ([1]; NCI-H23): 3.73 µM | CC50 ([1]; NCI-H23, read-out: LC50): 94.6 µM | GI50 ([1]; NCI-H226): 6.37 µM | CC50 ([1]; NCI-H226, read-out: LC50): > 100 µM | GI50 ([1]; NCI-H322M): 6.05 µM | CC50 ([1]; NCI-H322M, read-out: LC50): > 100 µM | GI50 ([1]; NCI-H460): 3.25 µM | CC50 ([1]; NCI-H460, read-out: LC50): 41.9 µM | GI50 ([1]; NCI-H522): 2.14 µM | CC50 ([1]; NCI-H522, read-out: LC50): 9.7 µM | GI50 ([1]; SF-268): 3.01 µM | CC50 ([1]; SF-268, read-out: LC50): 57.3 µM | GI50 ([1]; SNB-19): 2.12 µM | CC50 ([1]; SNB-19, read-out: LC50): 46 µM | GI50 ([1]; SNB-75): 1.88 µM | CC50 ([1]; SNB-75, read-out: LC50): 29.6 µM | GI50 ([1]; SW-620): 2.21 µM | CC50 ([1]; SW-620, read-out: LC50): 18.5 µM | GI50 ([1]; U-251): 1.09 µM | CC50 ([1]; U-251, read-out: LC50): 9.78 µM | SK-MEL-5 (% inhibition) (SK-MEL-5): 43%

Reference: patent publication US20250296953A1, “3,4-THIAZOLO-STEROIDS AND METHODS OF MAKING AND USING THE SAME” (Arkansas State University - Jonesboro, priority 2018, published 2025)
